Assay results from PMC7948503, “Optimization of a peptide ligand for the adhesion GPCR ADGRG2 provides a potent tool to explore receptor biology” (The Journal of Biological Chemistry, 2020).
Non-standard residues stand in square brackets, D forms with d. Residues, ends and D or L forms follow the SMILES beside them. *: point of attachment. FITC = O=C1OC2(c3ccc(O)cc3Oc3cc(O)ccc32)c2ccc(NC(=S)*)cc21; Phe(4-Me) = Cc1ccc(C[C@H](N)C(=O)O)cc1

How the values were obtained:
Assay in all cases: BRET binding of FITC-VPM-p15
Rluc-ADGRG2-ΔGPS-β V834A = biological target: T1, Rluc-ADGRG2-ΔGPS-β V834A (Mus musculus, UniProt Q8CJ12, V848A); conditions: mutant V834A
T1 construct: expressed in transfected cells; host or cells: HEK293
T1 sequence (Q8CJ12 614-1009 V848A): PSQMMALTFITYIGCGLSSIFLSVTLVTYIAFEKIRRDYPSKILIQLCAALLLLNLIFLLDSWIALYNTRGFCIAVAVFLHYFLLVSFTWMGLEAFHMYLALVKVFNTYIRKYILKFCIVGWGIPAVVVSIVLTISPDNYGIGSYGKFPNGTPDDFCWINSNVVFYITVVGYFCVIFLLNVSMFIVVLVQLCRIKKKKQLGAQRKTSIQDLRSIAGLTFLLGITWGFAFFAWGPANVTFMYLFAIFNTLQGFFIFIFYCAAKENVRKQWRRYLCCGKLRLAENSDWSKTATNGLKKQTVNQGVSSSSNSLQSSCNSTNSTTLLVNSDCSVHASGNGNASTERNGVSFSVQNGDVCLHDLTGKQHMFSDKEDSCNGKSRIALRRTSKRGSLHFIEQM
Description: (§1) The binding capacities of ADGRG2 WT or its mutants for VPM-p15 were determined by BRET assay, which has been used in previous studies ([27], [28], [29]). We fused the N terminus of ADGRG2 with a Rluc fragment and coupled FITC to the C terminus of VPM-p15 to facilitate BRET measurement. We stimulated the HEK293 cells transfected with Rluc-ADGRG2-ΔGPS-β wildtype (WT) or mutants by increasing the concentration of FITC-conjugated VPM-p15, and their binding abilities were determined by fitting the data with the saturation curves.
(§2) In the detection of binding capacities of ADGRG2 WT or its mutants for VPM-p15, HEK293 cells were transfected with Rluc-ADGRG2-ΔGPS-β or mutants. Transfected cells were stimulated by increasing the concentration of FITC-conjugated VPM-p15. Binding capacities were determined by BRET, EC50 values of ADGRG2 WT and its mutants for binding VPM-p15 were calculated by GraphPad, and data were normalized by EC50 of WT.

Rluc-ADGRG2-ΔGPS-β F826A = biological target: T2, Rluc-ADGRG2-ΔGPS-β F826A (Mus musculus, UniProt Q8CJ12, F840A); conditions: mutant F826A
T2 construct: expressed in transfected cells; host or cells: HEK293
T2 sequence (Q8CJ12 614-1009 F840A): as the sequence (Q8CJ12 614-1009 V848A) above, with F227A, A235V counted along it
Description: as §1, §2

Rluc-ADGRG2-ΔGPS-β V731A = biological target: T3, Rluc-ADGRG2-ΔGPS-β V731A (Mus musculus, UniProt Q8CJ12, V745A); conditions: mutant V731A
T3 construct: the entire ECD (including the entire GPS motif) was removed (ADGRG2-ΔGPS-β); expressed in transfected cells; host or cells: HEK293
T3 sequence (Q8CJ12 618-1009 V745A limits assumed): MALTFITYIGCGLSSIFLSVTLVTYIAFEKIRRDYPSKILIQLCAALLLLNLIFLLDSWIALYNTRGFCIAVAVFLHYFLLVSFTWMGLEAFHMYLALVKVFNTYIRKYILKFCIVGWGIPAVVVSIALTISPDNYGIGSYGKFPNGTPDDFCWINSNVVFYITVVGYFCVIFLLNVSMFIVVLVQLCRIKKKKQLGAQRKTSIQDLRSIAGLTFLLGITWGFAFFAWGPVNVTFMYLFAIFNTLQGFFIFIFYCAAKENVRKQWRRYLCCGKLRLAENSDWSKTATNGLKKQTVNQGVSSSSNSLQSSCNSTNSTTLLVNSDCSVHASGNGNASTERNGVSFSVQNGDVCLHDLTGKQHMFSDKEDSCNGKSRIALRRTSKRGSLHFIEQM
Description: as §1, §2

Rluc-ADGRG2-ΔGPS-β L679A = biological target: T4, Rluc-ADGRG2-ΔGPS-β L679A (Mus musculus, UniProt Q8CJ12, L693A); conditions: mutant L679A
T4 construct: the entire ECD (including the entire GPS motif) was removed (ADGRG2-ΔGPS-β); expressed in transfected cells; host or cells: HEK293
T4 sequence (Q8CJ12 618-1009 L693A limits assumed): as the sequence (Q8CJ12 618-1009 V745A limits assumed) above, with L76A, A128V counted along it
Description: as §1, §2

Rluc-ADGRG2-ΔGPS-β W662A = biological target: T5, Rluc-ADGRG2-ΔGPS-β W662A (Mus musculus, UniProt Q8CJ12, W676A); conditions: mutant W662A
T5 construct: the entire ECD (including the entire GPS motif) was removed (ADGRG2-ΔGPS-β); expressed in transfected cells; host or cells: HEK293
T5 sequence (Q8CJ12 618-1009 W676A limits assumed): as the sequence (Q8CJ12 618-1009 V745A limits assumed) above, with W59A, A128V counted along it
Description: as §1, §2

Rluc-ADGRG2-ΔGPS-β F764A = biological target: T6, Rluc-ADGRG2-ΔGPS-β F764A (Mus musculus, UniProt Q8CJ12, F778A); conditions: mutant F764A
T6 construct: the entire ECD (including the entire GPS motif) was removed (ADGRG2-ΔGPS-β); expressed in transfected cells; host or cells: HEK293
T6 sequence (Q8CJ12 618-1009 F778A limits assumed): as the sequence (Q8CJ12 618-1009 V745A limits assumed) above, with A128V, F161A counted along it
Description: as §1, §2

Rluc-ADGRG2-ΔGPS-β V768A = biological target: T7, Rluc-ADGRG2-ΔGPS-β V768A (Mus musculus, UniProt Q8CJ12, V782A); conditions: mutant V768A
T7 construct: the entire ECD (including the entire GPS motif) was removed (ADGRG2-ΔGPS-β); expressed in transfected cells; host or cells: HEK293
T7 sequence (Q8CJ12 618-1009 V782A limits assumed): as the sequence (Q8CJ12 618-1009 V745A limits assumed) above, with A128V, V165A counted along it
Description: as §1, §2

Rluc-ADGRG2-ΔGPS-β I663A = biological target: T8, Rluc-ADGRG2-ΔGPS-β I663A (Mus musculus, UniProt Q8CJ12, I677A); conditions: mutant I663A
T8 construct: the entire ECD (including the entire GPS motif) was removed (ADGRG2-ΔGPS-β); expressed in transfected cells; host or cells: HEK293
T8 sequence (Q8CJ12 618-1009 I677A limits assumed): as the sequence (Q8CJ12 618-1009 V745A limits assumed) above, with I60A, A128V counted along it
Description: as §1, §2

Rluc-ADGRG2-ΔGPS-β F845A = biological target: T9, Rluc-ADGRG2-ΔGPS-β F845A (Mus musculus, UniProt Q8CJ12, F859A); conditions: mutant F845A
T9 construct: expressed in transfected cells; host or cells: HEK293
T9 sequence (Q8CJ12 614-1009 F859A): as the sequence (Q8CJ12 614-1009 V848A) above, with A235V, F246A counted along it
Description: as §1, §2

Rluc-ADGRG2-ΔGPS-β F671A = biological target: T10, Rluc-ADGRG2-ΔGPS-β F671A (Mus musculus, UniProt Q8CJ12, F685A); conditions: mutant F671A
T10 construct: the entire ECD (including the entire GPS motif) was removed (ADGRG2-ΔGPS-β); expressed in transfected cells; host or cells: HEK293
T10 sequence (Q8CJ12 618-1009 F685A limits assumed): as the sequence (Q8CJ12 618-1009 V745A limits assumed) above, with F68A, A128V counted along it
Description: as §1, §2

Rluc-ADGRG2-ΔGPS-β WT = biological target: T11, Rluc-ADGRG2-ΔGPS-β WT (Mus musculus, UniProt Q8CJ12); conditions: receptor WT
T11 construct: the entire ECD (including the entire GPS motif) was removed (ADGRG2-ΔGPS-β); expressed in transfected cells; host or cells: HEK293
T11 sequence (Q8CJ12 618-1009 limits assumed, stated change not applied): as the sequence (Q8CJ12 618-1009 V745A limits assumed) above, with A128V counted along it
Description: as §1, §2

Rluc-ADGRG2-ΔGPS-β N759A = biological target: T12, Rluc-ADGRG2-ΔGPS-β N759A (Mus musculus, UniProt Q8CJ12, N773A); conditions: mutant N759A
T12 construct: the entire ECD (including the entire GPS motif) was removed (ADGRG2-ΔGPS-β); expressed in transfected cells; host or cells: HEK293
T12 sequence (Q8CJ12 618-1009 N773A limits assumed): as the sequence (Q8CJ12 618-1009 V745A limits assumed) above, with A128V, N156A counted along it
Description: as §1, §2

Rluc-ADGRG2-ΔGPS-β F829A = biological target: T13, Rluc-ADGRG2-ΔGPS-β F829A (Mus musculus, UniProt Q8CJ12, F843A); conditions: mutant F829A
T13 construct: expressed in transfected cells; host or cells: HEK293
T13 sequence (Q8CJ12 614-1009 F843A): as the sequence (Q8CJ12 614-1009 V848A) above, with F230A, A235V counted along it
Description: as §1, §2

Rluc-ADGRG2-ΔGPS-β S661A = biological target: T14, Rluc-ADGRG2-ΔGPS-β S661A (Mus musculus, UniProt Q8CJ12, S675A); conditions: mutant S661A
T14 construct: the entire ECD (including the entire GPS motif) was removed (ADGRG2-ΔGPS-β); expressed in transfected cells; host or cells: HEK293
T14 sequence (Q8CJ12 618-1009 S675A limits assumed): as the sequence (Q8CJ12 618-1009 V745A limits assumed) above, with S58A, A128V counted along it
Description: as §1, §2

Rluc-ADGRG2-ΔGPS-β I741A = biological target: T15, Rluc-ADGRG2-ΔGPS-β I741A (Mus musculus, UniProt Q8CJ12, I755A); conditions: mutant I741A
T15 construct: the entire ECD (including the entire GPS motif) was removed (ADGRG2-ΔGPS-β); expressed in transfected cells; host or cells: HEK293
T15 sequence (Q8CJ12 618-1009 I755A limits assumed): as the sequence (Q8CJ12 618-1009 V745A limits assumed) above, with A128V, I138A counted along it
Description: as §1, §2

Rluc-ADGRG2-ΔGPS-β Y666A = biological target: T16, Rluc-ADGRG2-ΔGPS-β Y666A (Mus musculus, UniProt Q8CJ12, Y680A); conditions: mutant Y666A
T16 construct: the entire ECD (including the entire GPS motif) was removed (ADGRG2-ΔGPS-β); expressed in transfected cells; host or cells: HEK293
T16 sequence (Q8CJ12 618-1009 Y680A limits assumed): as the sequence (Q8CJ12 618-1009 V745A limits assumed) above, with Y63A, A128V counted along it
Description: as §1, §2

Rluc-ADGRG2-ΔGPS-β V769A = biological target: T17, Rluc-ADGRG2-ΔGPS-β V769A (Mus musculus, UniProt Q8CJ12, V783A); conditions: mutant V769A
T17 construct: expressed in transfected cells; host or cells: HEK293
T17 sequence (Q8CJ12 614-1009 V783A): as the sequence (Q8CJ12 614-1009 V848A) above, with V170A, A235V counted along it
Description: as §1, §2

Rluc-ADGRG2-ΔGPS-β N667A = biological target: T18, Rluc-ADGRG2-ΔGPS-β N667A (Mus musculus, UniProt Q8CJ12, N681A); conditions: mutant N667A
T18 construct: the entire ECD (including the entire GPS motif) was removed (ADGRG2-ΔGPS-β); expressed in transfected cells; host or cells: HEK293
T18 sequence (Q8CJ12 618-1009 N681A limits assumed): as the sequence (Q8CJ12 618-1009 V745A limits assumed) above, with N64A, A128V counted along it
Description: as §1, §2

Rluc-ADGRG2-ΔGPS-β M839A = biological target: T19, Rluc-ADGRG2-ΔGPS-β M839A (Mus musculus, UniProt Q8CJ12, M853A); conditions: mutant M839A
T19 construct: expressed in transfected cells; host or cells: HEK293
T19 sequence (Q8CJ12 614-1009 M853A): as the sequence (Q8CJ12 614-1009 V848A) above, with A235V, M240A counted along it
Description: as §1, §2

[1] = Kd(mutated ADGRG2-ΔGPS-β)/Kd(WT)

CC[C@H](C)[C@H](NC(=O)CNC(=O)[C@H](Cc1ccc(C)cc1)NC(=O)[C@H](CO)NC(=O)[C@@H](N)C(C)C)C(=O)N[C@@H](CC(C)C)C(=O)N[C@@H](CC(C)C)C(=O)N[C@@H](CC(=O)O)C(=O)N[C@@H](CC(C)C)C(=O)N[C@@H](CO)C(=O)N[C@@H](CCCNC(=N)N)C(=O)N[C@H](C(=O)N[C@@H](CO)C(=O)N[C@@H](CC(C)C)C(=O)N1CCC[C@H]1C(=O)N[C@@H](CCCCNC(=S)Nc1ccc2c(c1)C(=O)OC21c2ccc(O)cc2Oc2cc(O)ccc21)C(=O)O)[C@@H](C)O [FITC-VPM-p15] (H-VS[Phe(4-Me)]GILLDLSRTSLPK(FITC)-OH; N-terminus and C-terminus assumed)
Fmut (Rluc-ADGRG2-ΔGPS-β V834A; [1]): 1.196 | Bmax (Rluc-ADGRG2-ΔGPS-β V834A; binding Bmax (BRET)): 0.789±0.016 | Fmut (Rluc-ADGRG2-ΔGPS-β F826A; [1]): 1.248 | Bmax (Rluc-ADGRG2-ΔGPS-β F826A; binding Bmax (BRET)): 0.734±0.035 | Bmax (Rluc-ADGRG2-ΔGPS-β V731A): 0.7903±0.018 | Fmut (Rluc-ADGRG2-ΔGPS-β L679A; [1]): 1.242 | Bmax (Rluc-ADGRG2-ΔGPS-β L679A; binding Bmax (BRET)): 0.7804±0.017 | Fmut (Rluc-ADGRG2-ΔGPS-β W662A; [1]): 1.128 | Bmax (Rluc-ADGRG2-ΔGPS-β W662A; binding Bmax (BRET)): 0.808±0.047 | Fmut (Rluc-ADGRG2-ΔGPS-β F764A; [1]): 1.183 | Bmax (Rluc-ADGRG2-ΔGPS-β F764A; binding Bmax (BRET)): 0.814±0.039 | Fmut (Rluc-ADGRG2-ΔGPS-β V768A; [1]): 1.112 | Bmax (Rluc-ADGRG2-ΔGPS-β V768A; binding Bmax (BRET)): 0.792±0.029 | Fmut (Rluc-ADGRG2-ΔGPS-β I663A; [1]): 0.825 | Bmax (Rluc-ADGRG2-ΔGPS-β I663A; binding Bmax (BRET)): 0.814±0.043 | Fmut (Rluc-ADGRG2-ΔGPS-β F845A; [1]): 1.452 | Bmax (Rluc-ADGRG2-ΔGPS-β F845A; binding Bmax (BRET)): 0.749±0.071 | Fmut (Rluc-ADGRG2-ΔGPS-β F671A; [1]): 0.940 | Bmax (Rluc-ADGRG2-ΔGPS-β F671A; binding Bmax (BRET)): 0.833±0.050 | Fmut (Rluc-ADGRG2-ΔGPS-β WT; [1]): 1.000 | Bmax (Rluc-ADGRG2-ΔGPS-β WT; binding Bmax (BRET)): 0.809±0.015 | Fmut (Rluc-ADGRG2-ΔGPS-β N759A; [1]): 1.655 | Bmax (Rluc-ADGRG2-ΔGPS-β N759A; binding Bmax (BRET)): 0.713±0.011 | Fmut (Rluc-ADGRG2-ΔGPS-β F829A; [1]): 0.344 | Bmax (Rluc-ADGRG2-ΔGPS-β F829A; binding Bmax (BRET)): 0.817±0.050 | Fmut (Rluc-ADGRG2-ΔGPS-β S661A; [1]): 0.832 | Bmax (Rluc-ADGRG2-ΔGPS-β S661A; binding Bmax (BRET)): 0.6895±0.021 | Fmut (Rluc-ADGRG2-ΔGPS-β I741A; [1]): 0.715 | Bmax (Rluc-ADGRG2-ΔGPS-β I741A; binding Bmax (BRET)): 0.775±0.093 | Fmut (Rluc-ADGRG2-ΔGPS-β Y666A; [1]): 0.895 | Bmax (Rluc-ADGRG2-ΔGPS-β Y666A; binding Bmax (BRET)): 0.809±0.029 | Fmut (Rluc-ADGRG2-ΔGPS-β V769A; [1]): 1.145 | Bmax (Rluc-ADGRG2-ΔGPS-β V769A; binding Bmax (BRET)): 0.763±0.074 | Fmut (Rluc-ADGRG2-ΔGPS-β N667A; [1]): 0.975 | Bmax (Rluc-ADGRG2-ΔGPS-β N667A; binding Bmax (BRET)): 0.803±0.028 | Fmut (Rluc-ADGRG2-ΔGPS-β M839A; [1]): 0.957 | Bmax (Rluc-ADGRG2-ΔGPS-β M839A; binding Bmax (BRET)): 0.764±0.008
